Legend:
Type in all cases: binding
[1] = target: T1, SW480 colon carcinoma cells lysate proteins (Homo sapiens, UniProt O00764); details: PreyGene PDXK
T1 sequence (O00764 1-312): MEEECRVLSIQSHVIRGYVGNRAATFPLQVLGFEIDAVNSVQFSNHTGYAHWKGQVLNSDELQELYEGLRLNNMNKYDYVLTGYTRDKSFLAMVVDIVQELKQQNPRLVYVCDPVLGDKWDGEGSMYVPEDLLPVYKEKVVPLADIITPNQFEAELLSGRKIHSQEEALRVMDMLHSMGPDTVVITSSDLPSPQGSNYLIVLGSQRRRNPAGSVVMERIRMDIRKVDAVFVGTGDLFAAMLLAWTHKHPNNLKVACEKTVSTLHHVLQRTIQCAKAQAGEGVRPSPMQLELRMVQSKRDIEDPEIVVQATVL

[2] = target: SW480 colon carcinoma cells lysate proteins (Homo sapiens, UniProt O43399); details: PreyGene TPD52L2
[3] = target: T2, SW480 colon carcinoma cells lysate proteins (Homo sapiens, UniProt P00492); details: PreyGene HPRT1
T2 sequence (P00492 1-218): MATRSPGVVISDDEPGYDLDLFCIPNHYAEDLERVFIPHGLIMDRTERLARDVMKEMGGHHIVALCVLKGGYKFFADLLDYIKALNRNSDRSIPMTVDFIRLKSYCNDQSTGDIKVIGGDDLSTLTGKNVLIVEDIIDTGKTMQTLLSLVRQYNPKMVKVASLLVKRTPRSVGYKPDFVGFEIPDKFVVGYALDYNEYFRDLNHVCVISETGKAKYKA

[4] = target: SW480 colon carcinoma cells lysate proteins (Homo sapiens, UniProt P30153); details: PreyGene PPP2R1A
[5] = target: SW480 colon carcinoma cells lysate proteins (Homo sapiens, UniProt P62136); details: PreyGene PPP1CA
[6] = target: SW480 colon carcinoma cells lysate proteins (Homo sapiens, UniProt P63244); details: PreyGene GNB2L1; SW480 cells
[7] = target: SW480 colon carcinoma cells lysate proteins (Homo sapiens, UniProt P67809); details: PreyGene YBX1; SW480 cells
[8] = target: SW480 colon carcinoma cells lysate proteins (Homo sapiens, UniProt Q00610); details: PreyGene CLTC; SW480 cells
[9] = target: SW480 colon carcinoma cells lysate proteins (Homo sapiens, UniProt Q13576); details: PreyGene IQGAP2
[10] = target: SW480 colon carcinoma cells lysate proteins (Homo sapiens, UniProt Q14204); details: PreyGene DYNC1H1
[11] = target: T3, SW480 colon carcinoma cells lysate proteins (Homo sapiens, UniProt Q15084); details: PreyGene PDIA6
T3 sequence (Q15084 20-440): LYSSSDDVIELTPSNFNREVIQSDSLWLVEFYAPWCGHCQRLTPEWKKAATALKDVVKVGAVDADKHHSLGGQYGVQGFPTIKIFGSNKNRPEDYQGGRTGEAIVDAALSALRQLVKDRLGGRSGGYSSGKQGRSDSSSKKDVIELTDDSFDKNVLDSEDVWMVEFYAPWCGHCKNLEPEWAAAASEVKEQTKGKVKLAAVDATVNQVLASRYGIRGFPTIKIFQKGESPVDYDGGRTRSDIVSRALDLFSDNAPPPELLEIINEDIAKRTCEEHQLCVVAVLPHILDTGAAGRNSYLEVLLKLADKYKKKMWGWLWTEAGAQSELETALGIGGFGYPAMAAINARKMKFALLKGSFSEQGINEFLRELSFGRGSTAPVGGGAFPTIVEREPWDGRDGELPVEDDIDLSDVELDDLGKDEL

[12] = target: SW480 colon carcinoma cells lysate proteins (Homo sapiens, UniProt Q7Z406); details: PreyGene MYH14; SW480 cells
Chain of SW480 colon carcinoma cells lysate proteins (Homo sapiens, UniProt Q7Z406) (Q7Z406 whole entry): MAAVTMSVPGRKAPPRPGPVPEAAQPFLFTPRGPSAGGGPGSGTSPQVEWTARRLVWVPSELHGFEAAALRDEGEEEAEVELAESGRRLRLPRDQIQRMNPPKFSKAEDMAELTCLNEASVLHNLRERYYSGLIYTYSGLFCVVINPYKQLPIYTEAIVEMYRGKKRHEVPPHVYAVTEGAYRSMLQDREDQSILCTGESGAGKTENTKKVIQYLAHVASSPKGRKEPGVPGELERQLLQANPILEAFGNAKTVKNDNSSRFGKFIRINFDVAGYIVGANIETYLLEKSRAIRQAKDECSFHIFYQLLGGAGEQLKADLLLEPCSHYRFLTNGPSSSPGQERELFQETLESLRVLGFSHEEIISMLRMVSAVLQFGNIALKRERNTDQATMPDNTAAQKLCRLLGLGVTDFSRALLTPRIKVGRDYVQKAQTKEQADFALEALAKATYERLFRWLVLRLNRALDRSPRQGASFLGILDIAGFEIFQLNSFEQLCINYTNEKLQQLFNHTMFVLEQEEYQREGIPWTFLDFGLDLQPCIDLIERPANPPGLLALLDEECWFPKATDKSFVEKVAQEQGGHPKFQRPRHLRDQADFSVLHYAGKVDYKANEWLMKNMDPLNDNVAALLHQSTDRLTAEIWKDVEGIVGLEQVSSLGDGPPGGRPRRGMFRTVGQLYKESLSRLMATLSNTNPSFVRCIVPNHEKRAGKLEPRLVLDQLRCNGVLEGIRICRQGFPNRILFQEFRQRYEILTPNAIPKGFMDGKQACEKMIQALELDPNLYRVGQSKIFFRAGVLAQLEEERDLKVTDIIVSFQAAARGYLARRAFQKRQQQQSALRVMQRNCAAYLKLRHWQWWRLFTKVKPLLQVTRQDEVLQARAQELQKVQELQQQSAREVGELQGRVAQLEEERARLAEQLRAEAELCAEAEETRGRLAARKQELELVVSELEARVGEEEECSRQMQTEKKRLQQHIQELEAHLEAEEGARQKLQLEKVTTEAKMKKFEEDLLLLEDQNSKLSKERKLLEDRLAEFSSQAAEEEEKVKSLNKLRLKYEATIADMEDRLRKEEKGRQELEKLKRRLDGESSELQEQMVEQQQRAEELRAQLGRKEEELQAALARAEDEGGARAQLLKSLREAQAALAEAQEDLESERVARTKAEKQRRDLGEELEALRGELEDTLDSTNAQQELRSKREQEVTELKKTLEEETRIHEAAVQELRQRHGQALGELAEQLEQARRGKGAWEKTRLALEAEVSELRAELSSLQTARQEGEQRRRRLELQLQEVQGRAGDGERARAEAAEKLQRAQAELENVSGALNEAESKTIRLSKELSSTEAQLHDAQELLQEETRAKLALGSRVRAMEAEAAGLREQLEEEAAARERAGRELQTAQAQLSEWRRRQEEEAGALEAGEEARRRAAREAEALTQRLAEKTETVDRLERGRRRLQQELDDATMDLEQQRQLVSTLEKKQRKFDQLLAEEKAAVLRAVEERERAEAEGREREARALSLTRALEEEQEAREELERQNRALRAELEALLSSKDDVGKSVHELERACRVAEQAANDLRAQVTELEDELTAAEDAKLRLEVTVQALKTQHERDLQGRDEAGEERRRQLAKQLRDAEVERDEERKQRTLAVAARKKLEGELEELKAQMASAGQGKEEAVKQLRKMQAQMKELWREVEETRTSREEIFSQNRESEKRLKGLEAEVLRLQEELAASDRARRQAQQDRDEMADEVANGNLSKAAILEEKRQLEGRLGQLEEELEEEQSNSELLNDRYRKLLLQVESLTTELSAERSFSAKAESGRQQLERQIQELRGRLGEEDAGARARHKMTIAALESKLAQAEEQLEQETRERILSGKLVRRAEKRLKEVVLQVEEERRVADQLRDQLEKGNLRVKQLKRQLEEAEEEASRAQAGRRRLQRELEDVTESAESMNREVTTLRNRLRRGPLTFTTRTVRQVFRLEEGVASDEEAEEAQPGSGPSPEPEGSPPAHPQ

Chain of SW480 colon carcinoma cells lysate proteins (Homo sapiens, UniProt P30153) (P30153 whole entry): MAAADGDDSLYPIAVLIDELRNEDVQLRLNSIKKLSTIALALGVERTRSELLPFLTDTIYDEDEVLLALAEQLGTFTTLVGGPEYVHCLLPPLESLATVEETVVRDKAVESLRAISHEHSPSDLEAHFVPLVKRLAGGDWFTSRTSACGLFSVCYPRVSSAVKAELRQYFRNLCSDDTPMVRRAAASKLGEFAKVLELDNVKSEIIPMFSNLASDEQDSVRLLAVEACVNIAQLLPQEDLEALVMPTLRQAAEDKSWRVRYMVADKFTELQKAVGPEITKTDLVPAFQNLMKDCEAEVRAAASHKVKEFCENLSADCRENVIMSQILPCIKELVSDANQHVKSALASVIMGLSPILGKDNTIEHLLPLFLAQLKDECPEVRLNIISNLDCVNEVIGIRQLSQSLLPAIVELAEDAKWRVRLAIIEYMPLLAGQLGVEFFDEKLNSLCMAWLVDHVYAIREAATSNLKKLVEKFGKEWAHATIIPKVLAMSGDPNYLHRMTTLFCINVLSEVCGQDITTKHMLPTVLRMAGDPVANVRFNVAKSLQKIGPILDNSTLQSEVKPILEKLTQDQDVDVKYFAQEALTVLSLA
Chain of SW480 colon carcinoma cells lysate proteins (Homo sapiens, UniProt Q13576) (Q13576 whole entry): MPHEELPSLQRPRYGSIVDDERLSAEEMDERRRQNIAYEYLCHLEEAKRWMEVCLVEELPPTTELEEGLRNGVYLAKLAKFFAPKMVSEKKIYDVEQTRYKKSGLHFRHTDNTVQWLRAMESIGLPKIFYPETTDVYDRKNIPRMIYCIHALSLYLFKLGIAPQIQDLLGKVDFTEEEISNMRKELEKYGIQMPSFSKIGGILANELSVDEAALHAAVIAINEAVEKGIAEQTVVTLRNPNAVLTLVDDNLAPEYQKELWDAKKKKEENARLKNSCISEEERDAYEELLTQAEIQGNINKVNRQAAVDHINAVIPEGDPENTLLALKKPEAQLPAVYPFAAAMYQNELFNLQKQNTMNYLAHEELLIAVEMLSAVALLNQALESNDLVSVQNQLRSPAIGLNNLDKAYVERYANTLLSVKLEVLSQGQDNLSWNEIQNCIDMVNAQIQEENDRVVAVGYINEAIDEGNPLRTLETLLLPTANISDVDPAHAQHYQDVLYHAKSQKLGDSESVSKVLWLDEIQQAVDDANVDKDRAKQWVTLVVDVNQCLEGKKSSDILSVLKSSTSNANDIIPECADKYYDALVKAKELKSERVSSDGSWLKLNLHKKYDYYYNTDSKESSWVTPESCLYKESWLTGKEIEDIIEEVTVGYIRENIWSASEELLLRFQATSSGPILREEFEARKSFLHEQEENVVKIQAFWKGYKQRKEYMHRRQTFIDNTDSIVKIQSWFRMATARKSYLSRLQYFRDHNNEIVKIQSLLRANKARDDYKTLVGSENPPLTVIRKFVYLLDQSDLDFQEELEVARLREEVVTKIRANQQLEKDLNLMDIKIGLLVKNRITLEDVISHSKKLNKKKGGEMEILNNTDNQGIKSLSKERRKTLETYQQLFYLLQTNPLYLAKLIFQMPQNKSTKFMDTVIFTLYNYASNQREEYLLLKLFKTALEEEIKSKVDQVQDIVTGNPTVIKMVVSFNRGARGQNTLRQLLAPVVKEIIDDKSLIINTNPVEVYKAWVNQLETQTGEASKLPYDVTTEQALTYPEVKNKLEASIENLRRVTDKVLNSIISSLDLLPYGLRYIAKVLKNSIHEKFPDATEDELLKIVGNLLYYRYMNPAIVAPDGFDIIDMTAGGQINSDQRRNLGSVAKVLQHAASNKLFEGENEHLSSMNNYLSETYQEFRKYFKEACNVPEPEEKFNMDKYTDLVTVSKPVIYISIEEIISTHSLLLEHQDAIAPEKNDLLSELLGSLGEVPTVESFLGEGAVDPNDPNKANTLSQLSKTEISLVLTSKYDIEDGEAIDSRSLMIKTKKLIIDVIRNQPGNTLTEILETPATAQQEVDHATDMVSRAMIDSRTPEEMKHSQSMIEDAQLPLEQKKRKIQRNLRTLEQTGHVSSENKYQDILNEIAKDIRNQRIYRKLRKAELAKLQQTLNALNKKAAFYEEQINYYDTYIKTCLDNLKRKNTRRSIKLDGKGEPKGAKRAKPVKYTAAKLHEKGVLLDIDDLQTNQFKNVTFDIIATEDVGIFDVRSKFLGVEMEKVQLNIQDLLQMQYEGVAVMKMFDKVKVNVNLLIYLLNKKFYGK
Chain of SW480 colon carcinoma cells lysate proteins (Homo sapiens, UniProt P62136) (P62136 whole entry): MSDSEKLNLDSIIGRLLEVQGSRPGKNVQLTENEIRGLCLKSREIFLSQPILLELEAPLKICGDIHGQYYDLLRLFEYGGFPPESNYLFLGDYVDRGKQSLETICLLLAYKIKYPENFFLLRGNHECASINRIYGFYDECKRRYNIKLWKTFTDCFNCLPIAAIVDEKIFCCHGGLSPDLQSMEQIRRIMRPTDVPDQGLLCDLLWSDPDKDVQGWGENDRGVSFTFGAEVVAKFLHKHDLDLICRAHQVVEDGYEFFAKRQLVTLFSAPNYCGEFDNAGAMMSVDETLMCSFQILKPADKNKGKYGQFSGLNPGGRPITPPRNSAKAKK
Chain of SW480 colon carcinoma cells lysate proteins (Homo sapiens, UniProt O43399) (O43399 whole entry): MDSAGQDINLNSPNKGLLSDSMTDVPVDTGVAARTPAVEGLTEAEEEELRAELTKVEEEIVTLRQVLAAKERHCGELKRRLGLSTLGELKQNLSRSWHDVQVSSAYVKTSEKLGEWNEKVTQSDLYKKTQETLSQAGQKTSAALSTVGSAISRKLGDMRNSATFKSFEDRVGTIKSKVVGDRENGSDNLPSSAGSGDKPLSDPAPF
Chain of SW480 colon carcinoma cells lysate proteins (Homo sapiens, UniProt P67809) (P67809 whole entry): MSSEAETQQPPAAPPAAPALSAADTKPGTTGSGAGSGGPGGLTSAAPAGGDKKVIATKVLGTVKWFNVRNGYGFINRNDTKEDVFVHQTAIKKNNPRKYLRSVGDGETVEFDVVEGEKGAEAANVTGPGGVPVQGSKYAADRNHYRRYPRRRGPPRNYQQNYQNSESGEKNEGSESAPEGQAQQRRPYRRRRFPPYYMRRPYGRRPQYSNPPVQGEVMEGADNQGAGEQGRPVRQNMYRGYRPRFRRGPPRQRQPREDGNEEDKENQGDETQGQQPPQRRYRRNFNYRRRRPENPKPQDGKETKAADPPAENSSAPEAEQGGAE

C[C@H](Oc1cc(-c2cnn(C3CCNCC3)c2)cnc1N)c1c(Cl)ccc(F)c1Cl [(5)-crizotinib]
AvgP [1]: 0.2207 | SC.Exp. 1-1 [1]: 3 | SC.Exp. 1-2 [1]: 0 | SC.Exp. 2-1 [1]: 0 | SC.Exp. 2-2 [1]: 0 | Sum (SC.Exp.) [1]: 3 | AvgP [2]: 0.191 | SC.Exp. 1-1 [2]: 0 | SC.Exp. 1-2 [2]: 2 | SC.Exp. 2-1 [2]: 0 | SC.Exp. 2-2 [2]: 0 | Sum (SC.Exp.) [2]: 2 | AvgP [3]: 0.1891 | SC.Exp. 1-1 [3]: 2 | SC.Exp. 1-2 [3]: 0 | SC.Exp. 2-1 [3]: 0 | SC.Exp. 2-2 [3]: 0 | Sum (SC.Exp.) [3]: 2 | AvgP [4]: 0.4042 | SC.Exp. 1-1 [4]: 3 | SC.Exp. 1-2 [4]: 3 | SC.Exp. 2-1 [4]: 0 | SC.Exp. 2-2 [4]: 0 | Sum (SC.Exp.) [4]: 6 | AvgP [5]: 0.3721 | SC.Exp. 1-1 [5]: 2 | SC.Exp. 1-2 [5]: 2 | SC.Exp. 2-1 [5]: 0 | SC.Exp. 2-2 [5]: 0 | Sum (SC.Exp.) [5]: 4 | AvgP [6]: 0 | SC.Exp. 1-1 [6]: 12 | SC.Exp. 1-2 [6]: 13 | SC.Exp. 2-1 [6]: 9 | SC.Exp. 2-2 [6]: 11 | SC.Exp. Sum [6]: 45 | AvgP [7]: 0 | SC.Exp. 1-1 [7]: 2 | SC.Exp. 1-2 [7]: 2 | SC.Exp. 2-1 [7]: 2 | SC.Exp. 2-2 [7]: 2 | SC.Exp. Sum [7]: 8 | AvgP [8]: 0 | SC.Exp. 1-1 [8]: 16 | SC.Exp. 1-2 [8]: 14 | SC.Exp. 2-1 [8]: 5 | SC.Exp. 2-2 [8]: 7 | SC.Exp. Sum [8]: 42 | AvgP [9]: 0.4584 | SC.Exp. 1-1 [9]: 9 | SC.Exp. 1-2 [9]: 9 | SC.Exp. 2-1 [9]: 0 | SC.Exp. 2-2 [9]: 0 | Sum (SC.Exp.) [9]: 18 | AvgP [10]: 0.2458 | SC.Exp. 1-1 [10]: 13 | SC.Exp. 1-2 [10]: 13 | SC.Exp. 2-1 [10]: 2 | SC.Exp. 2-2 [10]: 2 | Sum (SC.Exp.) [10]: 30 | AvgP [11]: 0.4427 | SC.Exp. 1-1 [11]: 3 | SC.Exp. 1-2 [11]: 4 | SC.Exp. 2-1 [11]: 0 | SC.Exp. 2-2 [11]: 0 | Sum (SC.Exp.) [11]: 7 | AvgP [12]: 0 | SC.Exp. 1-1 [12]: 1 | SC.Exp. 1-2 [12]: 1 | SC.Exp. 2-1 [12]: 0 | SC.Exp. 2-2 [12]: 0 | SC.Exp. Sum [12]: 2
